Earlier results as cited in US20220273802A1, “METHODS FOR IMPROVED DELIVERY OF AMINOTHIOLS, DIMERS OF AMINOTHIOLS, AND HETERODIMERS COMPOSED OF AMINOTHIOLS” (THE BURLINGTON HC RESEARCH GROUP, INC., priority 2012, published 2022).

Columns and labels:
mouse L cells = details: for radioprotective effect upon mouse L cells in culture: compound alone, without dephosphorylation
V79 cells = details: for activity if present outside of V79 cells: compound present outside of cells
[1] = system: three species of adenovirus
SIV = details: later studies

Compound	radioprotective effect upon mouse L cells in culture (mouse L cells)	radioprotective activity (mouse L cells; incubated with mouse liver homogenate (active alkaline phosphatase))	activity if present outside of V79 cells (V79 cells)	antiviral efficacy against HIV (HIV)	antiviral efficacy against influenza virus A and B (influenza virus A and B)	antiviral efficacy against three species of adenovirus [1]	efficacy against SIV (SIV)	protection against gamma-radiation (V79 cells; correlated with intracellular levels)
NCCCNCCSP(=O)(O)O [Amifostine]	no radioprotective effect	radioprotective activity was observed	did not show evidence of activity					
NCCCNCCSSCC(N)C(=O)O (stereo not drawn) [WR-1065-Cys]			did not show evidence of activity					
NCCCNCCS [WR-1065]	Activity also was observed		did not show evidence of activity	exhibits antiviral efficacy	exhibits antiviral efficacy	exhibits antiviral efficacy	demonstrated efficacy	significant protection
NCCCNCCSSCCNCCCN [WR-33278]			did not show evidence of activity					
